The source made the active and inactive calls. Where only a bound is given, the exact number is not on record here.

Data on 15 compounds can be found in ChEMBL document CHEMBL1201862, “PubChem BioAssay data set” (2004).

Assay [1] addresses Ras and Rab interactor 1/Tyrosine-protein kinase ABL1 (Homo sapiens, UniProt P00519+Q13671). It counts as functional.
A further assay concerns the target Steroidogenic factor 1 (Homo sapiens, UniProt Q13285). Put plainly: Counterscreen for inverse agonists of the liver receptor homolog-1 (LRH-1; NR5A2): Luminescence-based cell-based high throughput dose response assay to identify inverse agonists of the Steroidogenic Factor 1 Nuclear Receptor (SF1; NR5A1). It counts as functional. In general terms: A counterscreen serves to expose hits that act by an unwanted route or on another target.

Assay [2] in a line: nonselective StAR promoter luciferase inhibitors – cell-based, luminescence, luciferase reporter, counter-screen for LRH-1 inverse agonist project, dose response (AID 651969). It counts as functional. In general terms: In a reporter assay the amount or activity of a reporter protein is the signal.
For assay [3], the target named is Nuclear receptor subfamily 5 group A member 2 (Homo sapiens, UniProt O00482). It counts as functional, cell-based.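 Also: HEK293T cells transfected with LRH-1 and a StAR promoter luciferase reporter; potency for inhibitors that lower LRH-1 driven reporter light.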
Assay [4] is described as follows: inhibition of ARNT PAS-B/TACC3 complex formation – biochemical, AlphaScreen, cherry-picked samples, confirmation (AID 651703).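 Also: His-tagged ARNT PAS-B domain paired with GST-TACC3 E629A dimer coactivator fragment; potency of inhibitors that break up the complex and lower AlphaScreen signal.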 It counts as functional, Homo sapiens.
The target of assay [5] is T1, Interleukin-8 (Homo sapiens, UniProt P10145).
T1 sequence (P10145 whole entry): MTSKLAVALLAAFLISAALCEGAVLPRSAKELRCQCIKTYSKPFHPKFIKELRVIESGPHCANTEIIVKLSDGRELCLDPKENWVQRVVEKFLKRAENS
Put plainly: Dose Response confirmation of uHTS small molecule hits for cystic fibrosis induced NFkb Inhibitors in a TNFa-induced IL8 counterscreen. It counts as functional. Particulars: read-out: IC50_Mean.

For assay [6], the target named is T1, Interleukin-8. The assay is described as follows: Dose Response confirmation of uHTS small molecule hits for cystic fibrosis induced NFkb Inhibitors in a PAF-induced IL8 counterscreen. In kind it is functional. The following applies: read-out: IC50_Mean.
The target in assay [7] is T2, Low molecular weight phosphotyrosine protein phosphatase (Homo sapiens, UniProt P24666).
T2 sequence (P24666 whole entry): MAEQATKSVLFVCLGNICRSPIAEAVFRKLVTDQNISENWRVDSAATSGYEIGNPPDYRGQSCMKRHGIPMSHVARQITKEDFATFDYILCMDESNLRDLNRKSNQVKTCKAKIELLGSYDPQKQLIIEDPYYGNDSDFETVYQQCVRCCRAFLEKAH
In kind it is functional. The following applies: read-out: IC50_Mean.

The target in assay [8] is T2, Low molecular weight phosphotyrosine protein phosphatase. In kind it is functional. The following applies: read-out: IC50_Mean. This is another data set of the same source.
The test system of a further assay is Streptococcus. The assay is described as follows: GAS UMAA2166 growth inhibition – luminescence, BacTiterGlo, counter-screen for streptokinase expression inhibitor project, dose response (AID 1915).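 Also: potency for reduction of bacterial viability or growth.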 In kind it is functional, organism-based.
For a further assay, the target named is T3, Streptokinase A (Streptococcus pyogenes serotype M1, UniProt P10520).
T3 sequence (P10520 whole entry): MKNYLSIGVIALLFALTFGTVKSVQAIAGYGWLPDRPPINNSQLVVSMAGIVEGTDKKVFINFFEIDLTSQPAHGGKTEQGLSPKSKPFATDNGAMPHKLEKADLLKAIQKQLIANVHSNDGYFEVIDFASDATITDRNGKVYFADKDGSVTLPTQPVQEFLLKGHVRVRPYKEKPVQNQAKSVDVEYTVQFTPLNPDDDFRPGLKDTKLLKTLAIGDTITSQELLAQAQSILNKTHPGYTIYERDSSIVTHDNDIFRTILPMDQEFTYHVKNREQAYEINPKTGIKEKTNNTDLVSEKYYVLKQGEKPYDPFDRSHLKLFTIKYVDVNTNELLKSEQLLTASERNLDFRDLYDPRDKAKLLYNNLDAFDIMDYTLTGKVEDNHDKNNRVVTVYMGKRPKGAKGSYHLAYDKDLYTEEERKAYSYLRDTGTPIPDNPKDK
Put plainly: viability-normalized secreted streptokinase activity reduction – plasminogen activation absorbance, OD405, dose response (AID 1914).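 Also: secreted streptokinase activity via plasminogen activation per viability signal from cell pellet.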 It counts as functional, Streptococcus pyogenes M1 GAS.

The subject of assay [9] is Streptococcus sp. 'group A'. The assay is described as follows: Streptococcus pyogenes SK(-)GAS viability under kanamycin – luminescence, BacTiterGlo, confirmation, counter-screen for streptokinase expression inhibitor project, dose response (AID 1900). It counts as functional, organism-based.
The target of assay [10] is DNA dC->dU-editing enzyme APOBEC-3G (Homo sapiens, UniProt Q9HC16). The assay is described as follows: inhibition of APOBEC3G ssDNA deamination – biochemical, fluorescence, single-stranded DNA substrate, SAR follow-up (AID 602136). It counts as functional. The following applies: read-out: IC50_Mean.
Assay [11] concerns the target DNA dC->dU-editing enzyme APOBEC-3A (Homo sapiens, UniProt P31941). The assay is described as follows: SAR analysis of small molecule inhibitors of APOBEC3A DNA Deaminase via a fluorescence-based single-stranded DNA deaminase assay. It counts as functional. Particulars: read-out: IC50_Mean.
In assay [12] the target is Mitochondrial peptide methionine sulfoxide reductase (Bos taurus, UniProt P54149). The assay is described as follows: Absorbance-based biochemical high throughput dose response assay for activators of Methionine sulfoxide reductase A (MsrA). It counts as functional.
A short description of assay [13]: viability loss in THP-1 monocytes – THP-1 cells, cytotoxicity control for Vif-APOBEC3G degradation inhibitor project, dose response (AID 1117359). It counts as functional. The following applies: THP-1.
Assay [14] is described as follows: bead-based luminescence quenchers, dual-tagged ARNT – biochemical, AlphaScreen, cherry-pick, artefact control for ARNT-TACC3 interaction inhibitor project, dose response (AID 651705).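 Also: AlphaScreen bead proximity signal that flags compounds interfering with the detection technology; potency reflects signal decrease which marks the compound as an assay artifact.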 In kind it is functional.
Assay [15] concerns the target T4, Heat shock factor protein 1 (Mus musculus, UniProt P38532).
T4 sequence (P38532 whole entry): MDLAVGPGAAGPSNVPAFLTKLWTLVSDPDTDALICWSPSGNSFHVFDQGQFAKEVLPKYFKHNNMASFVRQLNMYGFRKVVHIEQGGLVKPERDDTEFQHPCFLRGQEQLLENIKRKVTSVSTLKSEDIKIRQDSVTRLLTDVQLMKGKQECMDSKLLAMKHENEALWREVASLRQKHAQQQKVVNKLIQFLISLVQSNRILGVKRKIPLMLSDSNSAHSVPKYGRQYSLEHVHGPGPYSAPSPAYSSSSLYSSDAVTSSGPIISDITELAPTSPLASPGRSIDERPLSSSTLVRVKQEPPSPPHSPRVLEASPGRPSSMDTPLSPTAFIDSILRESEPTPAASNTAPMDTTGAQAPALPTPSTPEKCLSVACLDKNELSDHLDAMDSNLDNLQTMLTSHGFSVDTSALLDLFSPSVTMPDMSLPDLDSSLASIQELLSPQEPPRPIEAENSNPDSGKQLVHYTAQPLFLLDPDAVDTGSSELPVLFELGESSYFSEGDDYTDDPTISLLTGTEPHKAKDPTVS
The assay is described as follows: decrease of HSF1-responsive luciferase luminescence – cell-based, NIH3T3, dose retest, confirmation (AID 2382).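 Also: NIH3T3 fibroblasts with HSF1-driven luciferase reporter stressed by proteasome inhibitor MG132; luminescence from HSF1-driven luciferase expression after 8 hours of MG132 stress.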 In kind it is functional.

In assay [16] the test system is BJ. Put plainly: BJ-TERT-LT-ST fibroblast viability loss – cell-based, RAS-independent, luminescence, dose response (AID 1935).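 Also: BJ fibroblasts immortalized with TERT plus LT and ST oncogenes.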 Particulars: Homo sapiens. In kind it is functional.
Assay [17] deals with BJ. Put plainly: cells. In kind it is functional, cell-based. The following applies: Homo sapiens.
The nature of assay [18]: alpha-synuclein stem-loop luciferase translation blockers – H4 neuroglioma cells, luminescence, confirmation (AID 1988). In kind it is functional, cell-based.
Assay [19] deals with BJ. Put plainly: growth inhibition of engineered Ras-driven BJ cells – cell-based, alamar blue fluorescence, cherrypicked samples, dose response (AID 2631).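 Also: confirmatory dose-response assay in RAS-dependent BJ fibroblasts engineered with TERT, LT and ST, with cytotoxicity read by fluorescence.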 It counts as functional. The following applies: Homo sapiens. Background: Alamar Blue is a resazurin reagent that responds to reducing activity.
The nature of assay [20]: luciferase reporter signal suppression in cells – H4 neuroglioma cells, luminescence, dose response (AID 1990). It counts as functional, cell-based.
A short description of assay [21]: Luminescence Cell-Based Dose Response HTS to Identify Inhibitors of 5'UTR Stem-Loop Driven Prion Protein mRNA Translation in H4 Neuroglioblastoma Cells. [Related pubchem assays: 1827 (Project Summary), 1813 (Primary HTS)]. In kind it is functional.
Assay [22] can be described thus: HEK-293T viability loss after treatment – luminescence, T-cell screen hits, cytotoxicity control for TCR NF-kB inhibitor project, dose response (AID 489026).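 Also: cells exposed to compound about 14 hours before the viability readout.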 It counts as functional, cell-based.
Assay [23] in a line: DRD fibroblast viability loss – cell-based, non-viral oncogenic, luminescence, dose response (AID 1934). It counts as functional. The following applies: Homo sapiens.
Assay [24] concerns BJ. The assay is described as follows: BJ-TERT fibroblast viability loss – cell-based, RAS-independent, luminescence, dose response (AID 1933). It counts as functional. The following applies: Homo sapiens.
For assay [25], the target named is T5, Oxysterols receptor LXR-beta (Homo sapiens, UniProt P55055).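 Also: Cell-based luminescence dose-response assay of agonist activity at LXR, run as a confirmatory counterscreen to a daf-12 agonist screen; HEK293 cells with Gal4-LXR fusion and GAL4-driven luciferase reporter; agonist potency from rising luciferase signal of a Gal4-LXR reporter.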
T5 sequence (P55055 whole entry): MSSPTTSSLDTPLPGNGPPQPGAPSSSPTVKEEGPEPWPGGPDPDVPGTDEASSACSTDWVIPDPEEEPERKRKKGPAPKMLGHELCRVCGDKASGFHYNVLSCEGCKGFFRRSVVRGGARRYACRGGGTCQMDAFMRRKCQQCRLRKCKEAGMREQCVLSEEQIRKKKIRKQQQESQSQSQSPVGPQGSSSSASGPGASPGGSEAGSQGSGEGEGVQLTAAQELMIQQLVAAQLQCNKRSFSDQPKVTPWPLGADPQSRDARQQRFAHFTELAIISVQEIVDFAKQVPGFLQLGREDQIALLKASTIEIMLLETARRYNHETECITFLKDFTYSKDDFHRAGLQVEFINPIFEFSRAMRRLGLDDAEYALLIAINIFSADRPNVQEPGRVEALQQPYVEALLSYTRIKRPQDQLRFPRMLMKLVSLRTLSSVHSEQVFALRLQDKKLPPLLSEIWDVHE
It counts as functional, cell-based.

DNA dC->dU-editing enzyme APOBEC-3G, sequence (Q9HC16 whole entry): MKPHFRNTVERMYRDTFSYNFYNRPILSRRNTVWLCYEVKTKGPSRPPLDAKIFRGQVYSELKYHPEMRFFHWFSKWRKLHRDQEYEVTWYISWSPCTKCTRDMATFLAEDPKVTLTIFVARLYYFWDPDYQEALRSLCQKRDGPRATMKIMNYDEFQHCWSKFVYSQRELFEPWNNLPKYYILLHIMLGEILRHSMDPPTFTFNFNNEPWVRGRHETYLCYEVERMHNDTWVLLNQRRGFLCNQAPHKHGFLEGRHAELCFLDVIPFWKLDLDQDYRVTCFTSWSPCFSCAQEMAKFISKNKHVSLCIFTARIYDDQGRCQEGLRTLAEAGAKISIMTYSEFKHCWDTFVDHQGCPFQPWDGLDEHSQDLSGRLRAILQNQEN
DNA dC->dU-editing enzyme APOBEC-3A, sequence (P31941 whole entry): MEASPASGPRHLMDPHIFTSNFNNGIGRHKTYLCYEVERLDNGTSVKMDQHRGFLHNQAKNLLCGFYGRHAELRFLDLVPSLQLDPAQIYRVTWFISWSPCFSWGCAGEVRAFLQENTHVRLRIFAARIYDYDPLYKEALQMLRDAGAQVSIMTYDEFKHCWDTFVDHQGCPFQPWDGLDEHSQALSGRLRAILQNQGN
Ras and Rab interactor 1/Tyrosine-protein kinase ABL1, sequence (P00519 whole entry): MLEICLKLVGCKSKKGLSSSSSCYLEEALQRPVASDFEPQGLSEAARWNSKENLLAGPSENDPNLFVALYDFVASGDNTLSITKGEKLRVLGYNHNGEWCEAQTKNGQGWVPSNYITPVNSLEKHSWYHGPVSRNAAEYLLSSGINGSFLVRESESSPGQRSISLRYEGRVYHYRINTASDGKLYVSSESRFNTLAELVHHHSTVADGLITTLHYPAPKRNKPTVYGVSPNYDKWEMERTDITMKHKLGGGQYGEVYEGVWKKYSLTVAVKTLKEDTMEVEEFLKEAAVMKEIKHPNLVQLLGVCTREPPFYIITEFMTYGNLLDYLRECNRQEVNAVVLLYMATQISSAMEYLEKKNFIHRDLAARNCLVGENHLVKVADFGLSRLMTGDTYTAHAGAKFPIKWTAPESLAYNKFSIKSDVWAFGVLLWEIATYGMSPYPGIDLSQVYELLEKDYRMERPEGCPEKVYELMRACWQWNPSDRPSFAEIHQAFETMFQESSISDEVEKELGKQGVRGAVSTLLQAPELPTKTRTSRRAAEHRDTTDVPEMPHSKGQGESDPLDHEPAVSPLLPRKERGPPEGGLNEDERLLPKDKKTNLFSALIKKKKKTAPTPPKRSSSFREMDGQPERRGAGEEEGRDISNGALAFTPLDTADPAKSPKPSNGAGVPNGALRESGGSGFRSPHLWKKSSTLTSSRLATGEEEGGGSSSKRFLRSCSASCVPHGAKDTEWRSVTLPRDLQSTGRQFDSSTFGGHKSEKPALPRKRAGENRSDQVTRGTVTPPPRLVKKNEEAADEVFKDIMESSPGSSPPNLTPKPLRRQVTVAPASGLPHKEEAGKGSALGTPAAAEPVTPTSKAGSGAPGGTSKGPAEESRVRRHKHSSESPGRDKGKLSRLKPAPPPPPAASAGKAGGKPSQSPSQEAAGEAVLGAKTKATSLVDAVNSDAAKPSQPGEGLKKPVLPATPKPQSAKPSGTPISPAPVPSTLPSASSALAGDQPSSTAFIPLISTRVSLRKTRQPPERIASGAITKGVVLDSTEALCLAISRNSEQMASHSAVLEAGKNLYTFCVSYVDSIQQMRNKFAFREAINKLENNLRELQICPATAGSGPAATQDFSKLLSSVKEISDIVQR
Ras and Rab interactor 1/Tyrosine-protein kinase ABL1, sequence (Q13671 whole entry): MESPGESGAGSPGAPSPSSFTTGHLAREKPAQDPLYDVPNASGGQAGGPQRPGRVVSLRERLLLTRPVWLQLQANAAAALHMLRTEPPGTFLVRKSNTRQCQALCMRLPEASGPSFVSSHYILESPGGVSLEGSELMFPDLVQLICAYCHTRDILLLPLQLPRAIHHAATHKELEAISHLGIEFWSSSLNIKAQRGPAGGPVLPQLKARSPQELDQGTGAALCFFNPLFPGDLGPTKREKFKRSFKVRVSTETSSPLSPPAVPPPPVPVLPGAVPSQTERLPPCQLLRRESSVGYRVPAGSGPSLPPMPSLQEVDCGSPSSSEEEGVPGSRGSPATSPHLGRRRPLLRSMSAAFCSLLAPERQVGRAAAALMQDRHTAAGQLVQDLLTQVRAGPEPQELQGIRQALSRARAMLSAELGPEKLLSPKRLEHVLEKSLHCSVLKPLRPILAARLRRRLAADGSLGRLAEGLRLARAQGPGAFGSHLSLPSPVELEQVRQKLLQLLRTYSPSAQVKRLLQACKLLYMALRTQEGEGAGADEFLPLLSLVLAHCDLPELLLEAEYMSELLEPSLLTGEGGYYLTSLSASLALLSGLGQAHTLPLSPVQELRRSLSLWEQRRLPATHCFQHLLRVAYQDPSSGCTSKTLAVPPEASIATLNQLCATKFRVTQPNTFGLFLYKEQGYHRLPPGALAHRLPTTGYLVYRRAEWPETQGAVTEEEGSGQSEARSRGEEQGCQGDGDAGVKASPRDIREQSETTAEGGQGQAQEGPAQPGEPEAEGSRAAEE
Steroidogenic factor 1, sequence (Q13285 whole entry): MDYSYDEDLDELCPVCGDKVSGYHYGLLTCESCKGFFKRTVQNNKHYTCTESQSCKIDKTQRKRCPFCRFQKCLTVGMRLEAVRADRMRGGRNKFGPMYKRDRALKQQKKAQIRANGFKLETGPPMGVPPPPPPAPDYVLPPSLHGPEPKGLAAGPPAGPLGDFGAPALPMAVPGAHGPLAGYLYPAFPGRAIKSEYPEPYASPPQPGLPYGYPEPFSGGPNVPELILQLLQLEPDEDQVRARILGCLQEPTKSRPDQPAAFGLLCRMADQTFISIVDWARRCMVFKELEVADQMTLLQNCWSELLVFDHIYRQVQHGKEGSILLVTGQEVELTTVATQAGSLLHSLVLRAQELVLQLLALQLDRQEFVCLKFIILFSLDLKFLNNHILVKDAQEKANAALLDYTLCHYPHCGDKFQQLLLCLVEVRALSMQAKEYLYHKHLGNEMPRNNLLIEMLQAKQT
Nuclear receptor subfamily 5 group A member 2, sequence (O00482 whole entry, the tested form may be a part): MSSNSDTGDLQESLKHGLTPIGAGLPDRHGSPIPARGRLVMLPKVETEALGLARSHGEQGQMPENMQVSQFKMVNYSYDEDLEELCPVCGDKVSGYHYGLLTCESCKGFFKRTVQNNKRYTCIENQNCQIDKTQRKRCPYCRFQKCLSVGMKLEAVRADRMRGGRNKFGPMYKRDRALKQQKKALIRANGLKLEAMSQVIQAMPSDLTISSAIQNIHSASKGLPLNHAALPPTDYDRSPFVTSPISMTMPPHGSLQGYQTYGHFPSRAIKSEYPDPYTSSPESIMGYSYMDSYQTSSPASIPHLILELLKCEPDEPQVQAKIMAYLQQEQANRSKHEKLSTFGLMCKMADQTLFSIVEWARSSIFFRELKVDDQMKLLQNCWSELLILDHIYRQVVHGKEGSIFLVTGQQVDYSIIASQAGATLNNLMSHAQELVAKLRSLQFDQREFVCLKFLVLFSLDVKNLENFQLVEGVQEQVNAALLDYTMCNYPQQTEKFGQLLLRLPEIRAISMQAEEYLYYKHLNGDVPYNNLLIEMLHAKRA
Mitochondrial peptide methionine sulfoxide reductase, sequence (P54149 whole entry): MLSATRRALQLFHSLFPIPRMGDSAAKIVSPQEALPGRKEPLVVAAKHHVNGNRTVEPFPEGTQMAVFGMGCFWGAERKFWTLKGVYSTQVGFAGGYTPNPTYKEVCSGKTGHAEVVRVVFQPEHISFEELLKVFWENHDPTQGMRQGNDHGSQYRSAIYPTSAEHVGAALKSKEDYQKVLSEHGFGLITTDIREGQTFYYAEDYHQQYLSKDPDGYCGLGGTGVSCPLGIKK

On to `C[C@]12CC[C@H](O)C[C@@H]1CC(=O)[C@@H]1[C@@H]2CC[C@]2(C)C(=O)CC[C@@H]12`, for which the IC50 in assay [1] was 33.8 µM (inactive).
As to `NS(=O)(=O)c1ccc(CCNC(=O)COc2ccc3c4c(c(=O)oc3c2)CCC4)cc1`, the IC50 (on Steroidogenic factor 1; in assay [2]; in assay [3]) was 35.9 µM (inactive) in each case.
The term AC50 denotes the midpoint of the concentration-response curve, whichever way the signal moves. As for `CC1=CC(C)(C)N(C(=O)C(C)N2C(=O)c3ccccc3C2=O)c2ccc(C)cc21` (stereo not given), the AC50 in [4] was 119 µM (active).
As for `CS(=O)(=O)c1ccc2nc(NC(=O)CCS(=O)(=O)c3ccccc3)sc2c1`, the IC50 on Interleukin-8 [5] is 1.5 µM (active); on Interleukin-8 [6], 1.36 µM (active).
For `CN1CCN(C(=O)CSc2nc(-c3ccncc3)ccc2C#N)CC1`, in [1], the IC50 was 39 µM (inactive).
Consider `CCC(C)(C)n1nnnc1CN1CCC(O)(c2cccc(C(F)(F)F)c2)CC1`, for which the IC50 at Steroidogenic factor 1 is 12.4 µM (inactive); in assay [2], 35.9 µM (inactive); in [3], 9.63 µM (active).
Turning to `COCCNc1nc(NCc2ccc(NC(C)=O)cc2)c2sccc2n1`, the IC50 in assay [7] was 17.5 µM (active); in assay [8], 15.4 µM (active).
What is called EC50 is the concentration that produces a half-maximal response. As to `COc1ccc(-c2c[nH]nc2-c2ccc(OC)cc2)cc1`, the IC50 at Interleukin-8 [5] was 3.57 µM (active); at Interleukin-8 [6], 5.39 µM (active). The EC50 with Streptococcus was 8.74 µM (active); at Streptokinase A, > 150 µM (not active); in assay [9], 3.33 µM (active).
Turning to `CCOc1ccccc1Nc1nc(Cl)nc(Nc2ccccc2OCC)n1`, the IC50 in [10] and in assay [11] was > 99 µM (inactive) in each case.
`CCCn1c(=O)c2ccccc2n2c(SCC(=O)NCc3ccccc3)nnc12`: the IC50 in assay [10] and in assay [11] was > 99 µM (inactive) each time.
The term CC50 denotes the concentration at which the toxic effect on the cells reaches its halfway point. For the compound `O=[N+]([O-])c1cc(Br)c(O)c(/C=N/c2ccc(N3CCOCC3)cc2)c1`, the EC50 in assay [12] is > 104 µM (inactive). The CC50 in assay [13] is > 40 µM (active).
Take `O=C(CN(Cc1ccccc1Cl)S(=O)(=O)c1ccc(Cl)cc1)N/N=C/c1ccc(C(=O)O)cc1`: the figures for the AC50 in assay [14] and in [4] were 84 µM (active) and 78.3 µM (active), respectively. For the same compound, the EC50 in [15] is recorded as > 195 µM (not active).
As for `CC1=CC(C)(C)N(S(=O)(=O)c2ccc(C)cc2)c2cc(C)ccc21`, the EC50 is 1.3 µM (inconclusive) in the assay on BJ [16]; 2.65 µM (active) in the assay with BJ [17]; 4.44 µM (inconclusive) in [18]; 0.353 µM (active) in the assay on BJ [19]; 4.98 µM (inconclusive) in [20]; 9.84 µM (active) in [21]. Also, the EC50 in assay [23] was 1.95 µM (active); in the assay with BJ [24], 1.34 µM (active). Moreover, in assay [22], the IC50 was > 80 µM (inactive).
With `COc1cccc(NC(=O)n2ncc3c(C)cccc32)c1`, the EC50 with BJ [16] was 18.2 µM (active); in the assay “cells”, > 67.5 µM (inactive); in the assay on BJ [17], 8.05 µM (active); with BJ [19] it was > 133 µM (inactive); in assay [25] it was > 67.5 µM (inactive); in [23] it was 6.62 µM (active). The concentration for a half-maximal effect (EC50) in the assay with BJ [24] is 11.5 µM (active).
Turning to `O=C(CSc1nnc2scc(-c3ccccc3)n12)Nc1ccccc1F`, the IC50 in assay [10] and in assay [11] was > 99 µM (inactive) each time.
